The source of these data is ChEMBL document CHEMBL1138499, “Anti-AIDS agents. 78. Design, synthesis, metabolic stability assessment, and antiviral evaluation of novel betulinic acid derivatives as potent anti-human immunodeficiency virus (HIV) agents” (J Med Chem, 2009).

Data set [1] in a line: Therapeutic index, ratio of CC50 for human MT2 cells to EC50 for HIV1 3B. The conditions noted are these: read-out: TI. Format: cell-based.
A further data set deals with MT2. The conditions noted are these: human.
Data set [2] is described as follows: Metabolic stability in human liver microsomes assessed as drug remaining at 1 mg/mL after 60 mins by HPLC. It counts as ADME, Microsome. The conditions noted are these: read-out: Stability.
The nature of data set [3]: Metabolic stability in human liver microsomes assessed as drug remaining at 1 mg/mL after 120 mins by HPLC. It counts as ADME, Microsome. The conditions noted are these: read-out: Stability.
Data set [4] is described as follows: Metabolic stability in human liver microsomes assessed as drug remaining at 1 mg/mL after 5 mins by HPLC. It counts as ADME, Microsome. The conditions noted are these: read-out: Stability. On the technique in general: Liver microsomes are vesicles of endoplasmic reticulum, rich in cytochrome P450 enzymes.
Data set [5] concerns Human immunodeficiency virus 1. Briefly: Antiviral activity against HIV1 3B infected in human MT2 cells assessed as p24 antigen level after 4 days by ELISA. Format: functional, organism-based. The conditions noted are these: Human immunodeficiency virus 1, 3B, MT2, 96 h. A general note: An ELISA detects its analyte on a solid surface through an enzyme-linked reagent.
Data set [6] is described as follows: Metabolic stability in human liver microsomes assessed as drug remaining at 1 mg/mL after 15 mins by HPLC. The conditions noted are these: read-out: Stability. It counts as ADME, Microsome.
Data set [7] in a line: Metabolic stability in human liver microsomes assessed as drug remaining at 1 mg/mL after 30 mins by HPLC. The conditions noted are these: read-out: Stability. It counts as ADME, Microsome.

Description for MT2: Cytotoxicity against human MT2 cells by XTT assay

Broadly, the EC50 is the concentration at which the effect is half-maximal. On to `C=C(C)[C@@H]1CC[C@]2(C(=O)N3CCC(CCCC(=O)O)CC3)CC[C@]3(C)[C@H](CC[C@@H]4[C@@]5(C)CC[C@H](O)C(C)(C)[C@@H]5CC[C@]43C)[C@@H]12`, for which the selectivity ratio in data set [1] is 1.9. In addition, in the data set on MT2, the CC50 was 41 µM. Besides, the remaining at 1 h, 1 mg/mL in data set [2] amounted to 62.7%. Besides, in data set [3], the remaining at 2 h, 1 mg/mL was 53.8%. The remaining at 5 min, 1 mg/mL in data set [4] amounted to 102%. For the same compound, in data set [5], the half-maximal effective concentration (EC50) came to 21.7 µM. Further, in data set [6], the remaining at 0.25 h, 1 mg/mL is 97.6%. Also, in data set [7], the remaining at 0.5 h, 1 mg/mL was determined as 81.4%.

As to `C=C(C)[C@@H]1CC[C@]2(C(=O)NCCCCCCCC(=O)O)CC[C@]3(C)[C@H](CC[C@@H]4[C@@]5(C)CC[C@H](O)C(C)(C)[C@@H]5CC[C@]43C)[C@@H]12`, the selectivity ratio in data set [1] is 10.1. The compound further came in with a CC50 in the data set on MT2 of 33.4 µM. For the same compound, the remaining at 1 h, 1 mg/mL in data set [2] worked out at 40.1%. Besides, in data set [3], the remaining at 2 h, 1 mg/mL came to 7.9%. Moreover, in data set [4], the remaining at 5 min, 1 mg/mL worked out at 93.4%. For the same compound, the EC50 in data set [5] was 3.3 µM. Also, the remaining at 0.25 h, 1 mg/mL in data set [6] was 70.7%. In data set [7], the remaining at 0.5 h, 1 mg/mL turned out to be 61.9%.
